Results reported in US20250145628A1, “PYRAZOLOPYRIMIDINES, COMPOSITIONS COMPRISING THEM AND USES THEREOF” (Novo Nordisk A/S, priority 2022, published 2025).

Assays:
human CB1 receptor [1] = biological target: T1, human CB1 receptor (Homo sapiens, UniProt P21554); experiment: bioSensAll GAPL-Gi2 BRET biosensor assay (antagonism of CP-55,940); format: cell-based; settings: HEK293 cells transfected with hCB1 and GAPL-Gi2 biosensor, EC75 of CP-55,940 (0.1 nM), overnight incubation, read-out: CB1 wt Gi2 IC50
T1 construct: expressed in transfected cells; host or cells: HEK293
Procedure, shortened: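 HEK293 cells transiently co-transfected with hCB1 and GAPL-Gi2 BRET biosensor; ~48 h later, in HBSS, 12 compound doses ([…]) added 3–5 min before CP-55,940 at EC75 (0.1 nM). BRET ratio 515/400 nm with coelenterazine, standardized to uBRET; four-parameter logistic fit.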

human CB1 receptor [2] = biological target: T1, human CB1 receptor; experiment: bioSensAll β-arrestin plasma membrane translocation BRET biosensor (+GRK2) assay (antagonism of CP-55,940); format: cell-based; settings: HEK293 cells transfected with hCB1 and β-arrestin PM translocation biosensor (+GRK2), EC75 of CP-55,940 (100 nM), overnight incubation, read-out: CB1 wt βarr2 IC50
Procedure, shortened: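 HEK293 cells co-transfected with hCB1 and β-arrestin plasma-membrane translocation BRET biosensor plus GRK2, tested ~48 h later in HBSS. Compounds (12 doses, 0–600 nM) added 3–5 min before CP-55,940 at EC75 of 100 nM. uBRET ratio (515/400 nm) fitted by four-parameter logistic regression.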

T1 sequence (P21554 whole entry): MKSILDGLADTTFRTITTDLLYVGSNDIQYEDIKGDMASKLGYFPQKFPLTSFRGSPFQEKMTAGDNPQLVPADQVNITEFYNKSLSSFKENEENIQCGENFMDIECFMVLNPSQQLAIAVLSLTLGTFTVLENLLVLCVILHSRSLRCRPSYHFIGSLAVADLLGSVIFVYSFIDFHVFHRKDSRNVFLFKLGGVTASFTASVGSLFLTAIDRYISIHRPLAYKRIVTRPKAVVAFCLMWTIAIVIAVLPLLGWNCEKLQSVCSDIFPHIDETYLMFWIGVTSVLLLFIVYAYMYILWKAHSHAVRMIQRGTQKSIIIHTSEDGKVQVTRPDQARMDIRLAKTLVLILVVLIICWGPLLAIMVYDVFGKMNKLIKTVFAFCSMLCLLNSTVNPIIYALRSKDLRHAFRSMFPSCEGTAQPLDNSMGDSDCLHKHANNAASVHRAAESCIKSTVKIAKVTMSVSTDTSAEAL

| SMILES | IC50 (human CB1 receptor [1]) | IC50 (human CB1 receptor [2]) |
| --- | --- | --- |
| CC(C)OC1(C(N)=O)CCN(c2cc(OCC(C)(C)O)nc3c(-c4ccc(Cl)cc4)c(-c4ccc(C#N)nc4)nn23)CC1 [Compound 63] | 0.9 nM | 1.62 nM |
| CN(CC(C)(C)O)c1cc(-c2ccc(C(F)(F)F)nc2)n2nc(-c3ccc(C(N)=O)nc3)c(-c3ccc(Cl)cc3)c2n1 [Compound 64, 5-[3-(4-chlorophenyl)-5-[(2-hydroxy-2-methyl-propyl)-methyl-amino]-7-[6-(trifluoromethyl)-3-pyridyl]pyrazolo[1,5-a]pyrimidin-2-yl]pyridine-2-carboxamide] | 1.25 nM | 2.95 nM |
| CNC(=O)[C@H]1CCN1c1cc(N2CCC(C)(C(N)=O)CC2)n2nc(-c3ccccc3Cl)c(-c3ccc(Cl)cc3)c2n1 [Compound 65, 1-[2-(2-chlorophenyl)-3-(4-chlorophenyl)-5-[(2R)-2-(methylcarbamoyl)azetidin-1-yl]pyrazolo[1,5-a]pyrimidin-7-yl]-4-methyl-piperidine-4-carboxamide] | 13.3 nM | 20.6 nM |
| CN(CCOCCO)c1cc(N2CCC(C)(C(N)=O)CC2)n2nc(-c3ccccc3Cl)c(-c3ccc(Cl)cc3)c2n1 [Compound 66, 1-[2-(2-chlorophenyl)-3-(4-chlorophenyl)-5-[2-(2-hydroxyethoxy)ethyl-methyl-amino]pyrazolo[1,5-a]pyrimidin-7-yl]-4-methyl-piperidine-4-carboxamide] | 7.3 nM | 47.3 nM |
| CN(C[C@H](O)CO)c1cc(N2CCC(C)(C(N)=O)CC2)n2nc(-c3ccccc3Cl)c(-c3ccc(Cl)cc3)c2n1 [Compound 67, 1-[2-(2-chlorophenyl)-3-(4-chlorophenyl)-5-[[(2S)-2,3-dihydroxypropyl]-methyl-amino]pyrazolo[1,5-a]pyrimidin-7-yl]-4-methyl-piperidine-4-carboxamide] | 1.96 nM | 14.5 nM |
| C[C@@H](C(N)=O)N(C)c1cc(N2CCC(C)(C(N)=O)CC2)n2nc(-c3ccccc3Cl)c(-c3ccc(Cl)cc3)c2n1 [Compound 68, 1-[5-[[(1S)-2-amino-1-methyl-2-oxo-ethyl]-methyl-amino]-2-(2-chlorophenyl)-3-(4-chlorophenyl)pyrazolo[1,5-a]pyrimidin-7-yl]-4-methyl-piperidine-4-carboxamide] | 3.01 nM | 14.5 nM |
| CCNC(=O)CN(C)c1cc(N2CC(OCC(N)=O)C2)n2nc(-c3ccccc3Cl)c(-c3ccc(Cl)cc3)c2n1 [Compound 69, 2-[[7-[3-(2-amino-2-oxo-ethoxy)azetidin-1-yl]-2-(2-chlorophenyl)-3-(4-chlorophenyl)pyrazolo[1,5-a]pyrimidin-5-yl]-methyl-amino]-N-ethyl-acetamide] | 3910 nM | > 30000 nM |
| C[C@@H](O)COc1cc(-c2ccc(C(F)(F)F)nc2)n2nc(-c3ccccc3Cl)c(-c3ccc(Cl)cc3)c2n1 [Compound 70(R)] | 1.11 nM | 2.78 nM |
| C[C@H](O)COc1cc(-c2ccc(C(F)(F)F)nc2)n2nc(-c3ccccc3Cl)c(-c3ccc(Cl)cc3)c2n1 [Compound 70(S)] | 1.71 nM | 8.27 nM |
| C[C@H](CO)Oc1cc(-c2ccc(C(F)(F)F)nc2)n2nc(-c3ccccc3Cl)c(-c3ccc(Cl)cc3)c2n1 [Compound 71(R)] | 3.08 nM | 12.3 nM |
| C[C@@H](CO)Oc1cc(-c2ccc(C(F)(F)F)nc2)n2nc(-c3ccccc3Cl)c(-c3ccc(Cl)cc3)c2n1 [Compound 71(S)] | 1.37 nM | 4.07 nM |
| O[C@@H]1CCN(c2cc(-c3ccc(C(F)(F)F)nc3)n3nc(-c4ccccc4Cl)c(-c4ccc(Cl)cc4)c3n2)C1 [Compound 72(R)] | 1.33 nM | 3.33 nM |
| O[C@H]1CCN(c2cc(-c3ccc(C(F)(F)F)nc3)n3nc(-c4ccccc4Cl)c(-c4ccc(Cl)cc4)c3n2)C1 [Compound 72(S)] | 1.64 nM | 5.25 nM |
